Measurements as given in patent publication US6476019B1, “Spirocyclic ligands for sigma receptors, and libraries and methods of use thereof” (Sepracor Inc., priority 1999, dated 2002).
≈ marks a conversion by molar mass, not a printed value. Where two headings read alike, the source gives them in different places.

Legend:
[1] = system: [3H]haloperidol binding sites in guinea pig brain; conditions: cited from earlier work
[2] = system: Cell Viability
[3] = target: T1, CYP3A4 (Homo sapiens, UniProt P08684)
T1 sequence (P08684 whole entry): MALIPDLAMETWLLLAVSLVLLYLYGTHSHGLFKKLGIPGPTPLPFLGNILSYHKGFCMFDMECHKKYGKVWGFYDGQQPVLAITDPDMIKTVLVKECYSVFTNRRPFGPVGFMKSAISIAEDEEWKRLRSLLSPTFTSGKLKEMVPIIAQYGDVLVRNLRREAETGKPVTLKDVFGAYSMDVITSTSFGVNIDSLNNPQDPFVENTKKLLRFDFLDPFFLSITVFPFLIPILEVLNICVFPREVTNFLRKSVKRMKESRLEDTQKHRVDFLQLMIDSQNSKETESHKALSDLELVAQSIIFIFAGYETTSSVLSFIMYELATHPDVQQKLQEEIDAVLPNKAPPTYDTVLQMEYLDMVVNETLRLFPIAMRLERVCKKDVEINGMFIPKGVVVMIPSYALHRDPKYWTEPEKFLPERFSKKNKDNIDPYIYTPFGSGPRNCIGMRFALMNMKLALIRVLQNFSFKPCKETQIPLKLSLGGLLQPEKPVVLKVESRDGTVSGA

[4] = system: Membrane Integrity
[5] = target: T2, CYP2C9 (Homo sapiens, UniProt P11712)
T2 sequence (P11712 whole entry): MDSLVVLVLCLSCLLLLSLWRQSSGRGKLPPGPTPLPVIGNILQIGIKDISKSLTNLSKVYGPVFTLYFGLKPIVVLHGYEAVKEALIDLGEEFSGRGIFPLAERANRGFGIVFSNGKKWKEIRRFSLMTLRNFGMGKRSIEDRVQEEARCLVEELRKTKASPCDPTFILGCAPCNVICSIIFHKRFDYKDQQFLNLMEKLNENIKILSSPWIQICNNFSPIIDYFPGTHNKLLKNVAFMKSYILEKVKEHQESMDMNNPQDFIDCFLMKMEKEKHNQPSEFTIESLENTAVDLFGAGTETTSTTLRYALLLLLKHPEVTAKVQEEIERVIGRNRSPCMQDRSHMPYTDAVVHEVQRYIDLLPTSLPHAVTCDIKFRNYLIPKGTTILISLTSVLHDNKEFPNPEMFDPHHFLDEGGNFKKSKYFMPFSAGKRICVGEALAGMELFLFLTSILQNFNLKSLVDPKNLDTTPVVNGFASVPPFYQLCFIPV

[6] = target: T3, CYP1A2 (Homo sapiens, UniProt P05177); assay: In Vitro Metabolism (isozymes of P450) CYP1A2
T3 sequence (P05177 1-516): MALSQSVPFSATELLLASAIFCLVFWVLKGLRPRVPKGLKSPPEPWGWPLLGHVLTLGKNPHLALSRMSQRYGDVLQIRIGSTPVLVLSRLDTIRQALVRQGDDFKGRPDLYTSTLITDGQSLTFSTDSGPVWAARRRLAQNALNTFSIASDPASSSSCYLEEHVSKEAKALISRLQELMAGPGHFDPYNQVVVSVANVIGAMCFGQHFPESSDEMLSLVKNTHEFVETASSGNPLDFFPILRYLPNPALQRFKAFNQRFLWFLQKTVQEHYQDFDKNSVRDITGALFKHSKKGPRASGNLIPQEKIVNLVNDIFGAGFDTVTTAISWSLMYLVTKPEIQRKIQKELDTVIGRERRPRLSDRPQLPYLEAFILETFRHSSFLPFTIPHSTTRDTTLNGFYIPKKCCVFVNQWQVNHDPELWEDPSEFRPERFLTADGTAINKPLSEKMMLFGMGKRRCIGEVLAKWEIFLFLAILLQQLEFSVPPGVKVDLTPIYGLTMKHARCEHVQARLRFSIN

[7] = physchem
[8] = system: GSH Level
[9] = target: T4, sigma-1 receptor (guinea pig brain) (Cavia porcellus, UniProt Q60492); assay: Antagonism of haloperidol binding to guinea pig sigma-1 receptors; conditions: sigma-1, guinea pig brain; for % Inhibition: test concentration not given
T4 construct: from tissue; host or cells: guinea pig brain
T4 sequence (Q60492 whole entry): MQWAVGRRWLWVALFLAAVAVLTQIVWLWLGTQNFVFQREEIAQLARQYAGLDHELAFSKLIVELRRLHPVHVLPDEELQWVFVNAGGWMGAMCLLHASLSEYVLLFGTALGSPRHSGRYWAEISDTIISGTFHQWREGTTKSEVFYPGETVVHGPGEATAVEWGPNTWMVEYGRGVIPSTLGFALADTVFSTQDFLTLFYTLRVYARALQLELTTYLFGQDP

[10] = target: T5, CYP2C19 (Homo sapiens, UniProt P33261)
T5 sequence (P33261 whole entry): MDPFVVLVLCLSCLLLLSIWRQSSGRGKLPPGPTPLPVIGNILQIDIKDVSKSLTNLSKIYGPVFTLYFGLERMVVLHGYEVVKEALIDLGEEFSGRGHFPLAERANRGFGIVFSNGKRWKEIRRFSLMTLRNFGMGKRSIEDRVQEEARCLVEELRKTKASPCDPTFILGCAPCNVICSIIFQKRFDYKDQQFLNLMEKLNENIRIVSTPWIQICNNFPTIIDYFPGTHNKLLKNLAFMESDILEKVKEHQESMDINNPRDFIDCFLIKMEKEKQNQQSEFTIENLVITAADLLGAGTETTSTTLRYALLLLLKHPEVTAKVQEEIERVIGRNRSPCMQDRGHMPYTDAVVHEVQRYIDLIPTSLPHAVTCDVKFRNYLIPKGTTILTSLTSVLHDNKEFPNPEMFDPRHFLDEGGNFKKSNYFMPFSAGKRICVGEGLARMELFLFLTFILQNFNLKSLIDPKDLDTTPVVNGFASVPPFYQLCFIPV

[11] = system: Caspase-3
[12] = system: Protein Synthesis; assay: Safety Assessment: Protein Synthesis
[13] = system: RedOx State
[14] = pH 7.5
[15] = in vitro
[16] = Permeability; format: in vitro ADME; conditions: not told; read-out: Permeability PupperX10^6 cm/s
[17] = system: DNA Synthesis; assay: Safety Assessment: DNA Synthesis
[18] = target: T6, CYP2D6 (Homo sapiens, UniProt P10635)
T6 sequence (P10635 whole entry): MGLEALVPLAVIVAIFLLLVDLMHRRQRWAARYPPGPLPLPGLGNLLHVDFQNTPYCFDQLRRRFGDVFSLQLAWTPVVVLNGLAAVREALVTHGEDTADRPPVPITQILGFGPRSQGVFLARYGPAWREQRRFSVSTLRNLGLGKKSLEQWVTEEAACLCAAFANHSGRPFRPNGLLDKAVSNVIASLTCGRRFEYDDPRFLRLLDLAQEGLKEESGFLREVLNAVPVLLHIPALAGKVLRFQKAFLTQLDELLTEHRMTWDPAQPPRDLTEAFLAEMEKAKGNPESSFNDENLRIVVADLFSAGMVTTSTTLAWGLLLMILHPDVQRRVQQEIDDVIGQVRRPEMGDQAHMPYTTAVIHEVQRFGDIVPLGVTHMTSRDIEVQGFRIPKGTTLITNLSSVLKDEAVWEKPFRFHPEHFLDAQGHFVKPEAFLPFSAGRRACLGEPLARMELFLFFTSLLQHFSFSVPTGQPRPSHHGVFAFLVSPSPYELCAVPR

[19] = target: sigma-1 receptors (Cavia porcellus, UniProt Q60492); assay: Behavioral receptor assays: sigma-1; format: binding; conditions: guinea pig
sigma-1 receptors, sequence (Q60492 whole entry): as the sequence (Q60492 whole entry) above
Experimental: (§1) Various compounds of the present invention (19, 31, and 32) were evaluated in a group of assays based on mammalian cellular receptors associated with behavior. The group consisted of assays base on human dopamine D1, D2L, D3, D4.2, D4.4, D4.7, and D5 receptors, and the transporter; human serotonin 5-HT1A, 5-HT1B, 5-HT1D, 5-HT2A, 5-HT2B, 5-HT2C, 5-HT3, 5-HT5A, 5-HT6, and 5-HT7 receptors, and the human serotonin transporter; guinea pig 5-HT4 and sigma-1 receptors; rat sigma-2 and muscarinic receptors; and human NK1-3 receptors. The following table presents a subset of the results of these assays.

[20] = target: human serotonin 5-HT2A (Homo sapiens, UniProt P28223); assay: Behavioral receptor assays: 5-HT2A; format: binding; conditions: read-out: Receptors (IC50) 5-HT2A
human serotonin 5-HT2A, sequence (P28223 whole entry): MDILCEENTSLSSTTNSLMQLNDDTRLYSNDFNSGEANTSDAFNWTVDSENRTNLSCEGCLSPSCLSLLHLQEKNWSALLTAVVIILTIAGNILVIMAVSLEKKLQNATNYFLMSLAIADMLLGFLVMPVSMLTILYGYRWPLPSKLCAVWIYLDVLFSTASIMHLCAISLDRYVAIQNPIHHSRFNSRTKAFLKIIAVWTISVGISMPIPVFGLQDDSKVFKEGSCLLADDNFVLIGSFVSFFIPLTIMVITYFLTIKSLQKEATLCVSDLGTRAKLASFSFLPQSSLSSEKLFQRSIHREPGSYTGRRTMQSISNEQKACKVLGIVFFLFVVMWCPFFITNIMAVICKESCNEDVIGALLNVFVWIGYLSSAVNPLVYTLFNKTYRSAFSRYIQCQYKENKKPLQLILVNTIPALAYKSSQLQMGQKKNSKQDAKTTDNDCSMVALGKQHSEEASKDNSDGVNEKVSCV
Experimental: as §1

[21] = target: T6, CYP2D6; assay: In Vitro Metabolism (isozymes of P450) CYP2D6
[22] = Metabolic Stability
[23] = target: T2, CYP2C9; assay: In Vitro Metabolism (isozymes of P450) CYP2C9
[24] = system: Cell Viability; assay: Safety Assessment: Cell Viability
[25] = Log D7.5
[26] = system: RedOx State; assay: Safety Assessment: RedOx State
[27] = target: T3, CYP1A2
[28] = Protein Binding
[29] = target: T5, CYP2C19; assay: In Vitro Metabolism (isozymes of P450) CYP2C19
[30] = system: GSH Level; assay: Safety Assessment: GSH Level
[31] = Solubility
[32] = target: T1, CYP3A4; assay: In Vitro Metabolism (isozymes of P450) CYP3A4
[33] = system: Caspase-3; assay: Safety Assessment: Caspase-3 Induction
[34] = system: Membrane Integrity; assay: Safety Assessment: Membrane Integrity
[35] = target: human sigma receptor (Homo sapiens, UniProt Q99720); assay: Human sigma receptor assay; format: binding; conditions: read-out: IC50 Against Human Sigma Receptor
human sigma receptor, sequence (Q99720 whole entry): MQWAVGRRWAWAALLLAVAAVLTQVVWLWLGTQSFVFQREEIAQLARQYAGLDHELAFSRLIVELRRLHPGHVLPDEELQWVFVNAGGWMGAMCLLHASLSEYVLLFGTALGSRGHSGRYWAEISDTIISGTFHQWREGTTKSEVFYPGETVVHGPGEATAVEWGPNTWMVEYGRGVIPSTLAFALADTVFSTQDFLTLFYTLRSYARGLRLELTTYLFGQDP
Experimental: (§2) The ability of test compounds to displace sigma ligands in vitro was determined by the methods of de Costa et al. (FEBS Lett. 251:53 (1989)) and De Haven-Hudkine et al. (Eur. J. Pharmacol. 227:372 (1992)) having guinea pig as a receptor source. Whereas, the methods of Gamapatju et al. (J. Pharm.&Exp. 289:251 (1999)) were utilized for human sigma receptors.

[36] = target: T7, guinea pig sigma receptor (Cavia porcellus, UniProt Q60492); assay: Guinea pig sigma receptor assay; format: binding; conditions: read-out: IC50 Against Guinea Pig Sigma Receptor
T7 construct: having guinea pig as a receptor source; from tissue; host or cells: guinea pig
T7 sequence (Q60492 whole entry): as the sequence (Q60492 whole entry) above
Experimental: as §2

[37] = system: Male Wistar rats; assay: MK-801-Induced Psychosis Model; format: in vivo, rat; conditions: rat, 0.5, 1.0 and 5.0 mg/kg i.p.; MK-801 0.3 mg/kg i.p.
Excerpt: The non-competitive NMDA receptor antagonist MK-801 induces stereotypies and hyperactivity in rodents (1) by interacting with the NMDA receptor-associated ion channel. Phencyclidine, which also interferes with the NMDA receptor, produces psychotic effects in humans similar in many respects to schizophrenia. […] Therefore the MK-801-induced activity and stereotypies in rats may represent an appropriate animal model to test the potential efficacy of antipsychotic drugs.
Male Wistar rats (Iffa Crédo, St Germain/l'Arbresle, France), weight 250-300 g were housed 2 per cage on a 12 h/12 h light dark cycle (lights on at 7.00 a.m.) at a room temperature of 21±2° C. for a minimum of 5 days before testing. All animals had access to commercial food and tap water ad libitum.
On the day of the experiment, rats were treated with either reference drug vehicle, the reference drugs haloperidol or clozapine the test compound vehicle or test compounds. After administration, the rats were returned to their home cages for 15 minutes. […] The remaining rats treated with placebo received a second injection of vehicle. The standard injection volume was 2.0 ml/kg. After 10 minutes in the home cages, rats were transferred to the test box (Plexiglas, 29×12×12 cm), 5 minutes before the assessment for accomodation. The test box was cleaned with 70% ethanol before each assessment. Stereotypies, defined as wall-contacts with the snout, and locomotion, defined as turn-rounds of 180°, were assessed during 5 minute periods.

For CC(C)=CCN1CCC2(C)c3cc(O)ccc3CC1C2C (single isomer, unassigned; (+)) [(+)-pentazocine], which “potency in displacing [3H]haloperidol relative to spiperone” value [1] is on record?
Its value is “about 10 times”.

For O=C1CCC2(CCNCC2)Nc2ccccc21 [Compound 11, 3,4-Dihydrospiro[5H-1-benzazepine-2(1H), 4′-piperidin]-5-one], which “Cell Viability” value [2] is on record?
Its value is less than 10 % inhibition.

And the CYP3A4 [3]?
Its CYP3A4 is less than 10 % inhibition.

And the “Membrane Integrity” value [4]?
Its value is less than 10 % inhibition.

And the CYP2C9 [5]?
The CYP2C9 was less than 10 % inhibition.

What about the CYP1A2 [6] of the same compound?
The CYP1A2 was less than 10 % inhibition.

And the solubility [7]?
The solubility was 202 µM (≈ 46.5 µg/mL).

And the “GSH Level (% Control)” value [8]?
Its value is less than 10 % Control.

What about the IC50 [9] of the same compound?
The IC50 was greater than 1000 nM.

And the “% Inhibition” value [9]?
The value was less than 50%.

What about the CYP2C19 [10] of the same compound?
The CYP2C19 was less than 10 % inhibition.

And the “Caspase-3 Induction % Induction” value [11]?
The value was less than 10 % Induction.

What about the “Protein Synthesis” value [12] of the same compound?
The value was 42 % inhibition.

What about the “RedOx State” value [13] of the same compound?
The value was less than 10 % inhibition.

And the “Log D7.5” value [14]?
Its value is 0.48.

What about the fraction unbound [15] of the same compound?
The fraction unbound was 0.3.

And the Papp [16]?
Its Papp is 4.7 ×10⁻⁶ cm/s.

And the “DNA Synthesis” value [17]?
Its value is less than 10 % inhibition.

What about the CYP2D6 [18] of the same compound?
Its CYP2D6 is 15 % inhibition.

Which results are given for O=C1CCC2(CCN(CCc3ccccc3)CC2)Nc2ccccc21 [Compound 19]?
IC50 [19]: < 100 nM; % Inhibition [9]: >50%; IC50 [20]: < 1000 nM

Which results are given for O=C1CCC2(CCN(Cc3nc4ccccc4[nH]3)CC2)Nc2ccccc21 [Compound 21, 1′-(2-methylbenzimidazole)-3,4-dih drospiro[5H-1-benzazepine-2(1H)-4′-piperidin]-5-one]?
CYP2D6 [21]: 100 % inhibition; Metabolic Stability (% parent remaining) [22]: 17 % parent remaining; CYP2C9 [23]: 19 % inhibition; Cell Viability [24]: <10 % inhibition; Log D7.5 [25]: 1.22; RedOx State [26]: 33 % inhibition; CYP1A2 [27]: 20 % inhibition; IC50 [9]: < 1000 nM; % Inhibition [9]: >50%; fraction unbound [28]: 0.01; CYP2C19 [29]: 20 % inhibition; Protein Synthesis [12]: 14 % inhibition; GSH Level (% Control) [30]: <10 % Control; solubility [31]: 210 µM (≈ 75.6 µg/mL); CYP3A4 [32]: 69 % inhibition; Caspase-3 Induction % Induction [33]: <10 % Induction; Papp [16]: 1.95 ×10⁻⁶ cm/s; DNA Synthesis [17]: 29 % inhibition; Membrane Integrity [34]: <10 % inhibition

For O[C@H]1CCC2(CCN(Cc3ccc(F)cc3)CC2)Nc2ccccc21 [Compound 49], which CYP2D6 [21] is on record?
Its CYP2D6 is 44 % inhibition.

And the “Metabolic Stability (% parent remaining)” value [22]?
The value was 69 % parent remaining.

What about the CYP2C9 [23] of the same compound?
The CYP2C9 was 18 % inhibition.

What about the IC50 [35] of the same compound?
Its IC50 is less than 100 nM.

What about the IC50 [36] of the same compound?
Its IC50 is less than 100 nM.

And the “Cell Viability” value [24]?
Its value is less than 10 % inhibition.

What about the “Log D7.5” value [25] of the same compound?
The value was 1.59.

What about the CYP1A2 [6] of the same compound?
The CYP1A2 was 13 % inhibition.

And the “RedOx State” value [26]?
Its value is 15 % inhibition.

And the fraction unbound [28]?
Its fraction unbound is 0.37.

And the CYP2C19 [29]?
Its CYP2C19 is 19 % inhibition.

What about the MK-801-induced locomotion [37] of the same compound?
The MK-801-induced locomotion was “did not reduce”.

What about the MK-801-induced stereotypies [37] of the same compound?
Its MK-801-induced stereotypies is “did not reduce”.

What about the “Protein Synthesis” value [12] of the same compound?
Its value is less than 10 % inhibition.

What about the “GSH Level (% Control)” value [30] of the same compound?
Its value is less than 10 % Control.

And the solubility [31]?
Its solubility is 181 µM (≈ 61.6 µg/mL).

And the CYP3A4 [32]?
Its CYP3A4 is 17 % inhibition.

What about the “Caspase-3 Induction % Induction” value [33] of the same compound?
The value was less than 10 % Induction.

What about the Papp [16] of the same compound?
Its Papp is 27.5 ×10⁻⁶ cm/s.

What about the “DNA Synthesis” value [17] of the same compound?
The value was less than 10 % inhibition.

And the “Membrane Integrity” value [34]?
The value was less than 10 % inhibition.

For O[C@@H]1CCC2(CCN(Cc3ccc(F)cc3)CC2)Nc2ccccc21 [Compound 50], which CYP2D6 [21] is on record?
Its CYP2D6 is 31 % inhibition.

What about the “Metabolic Stability (% parent remaining)” value [22] of the same compound?
Its value is 87 % parent remaining.

What about the CYP2C9 [23] of the same compound?
The CYP2C9 was 19 % inhibition.

What about the IC50 [35] of the same compound?
The IC50 was less than 1000 nM.

What about the IC50 [36] of the same compound?
Its IC50 is less than 100 nM.

What about the “Cell Viability” value [24] of the same compound?
The value was less than 10 % inhibition.

What about the “Log D7.5” value [25] of the same compound?
The value was 1.62.

And the CYP1A2 [6]?
The CYP1A2 was 14 % inhibition.

What about the “RedOx State” value [26] of the same compound?
Its value is 12 % inhibition.

What about the fraction unbound [28] of the same compound?
Its fraction unbound is 0.38.

What about the CYP2C19 [29] of the same compound?
Its CYP2C19 is 19 % inhibition.

What about the MK-801-induced locomotion [37] of the same compound?
The MK-801-induced locomotion was “caused a reduction”.

What about the MK-801-induced stereotypies [37] of the same compound?
Its MK-801-induced stereotypies is “caused a reduction”.

What about the “Protein Synthesis” value [12] of the same compound?
The value was less than 10 % inhibition.

And the “GSH Level (% Control)” value [30]?
The value was less than 10 % Control.

And the solubility [31]?
Its solubility is 205 µM (≈ 69.8 µg/mL).

What about the CYP3A4 [32] of the same compound?
The CYP3A4 was 19 % inhibition.

And the “Caspase-3 Induction % Induction” value [33]?
The value was less than 10 % Induction.

What about the Papp [16] of the same compound?
Its Papp is 25.8 ×10⁻⁶ cm/s.

And the “DNA Synthesis” value [17]?
Its value is less than 10 % inhibition.

And the “Membrane Integrity” value [34]?
The value was less than 10 % inhibition.
